# Measured values as given in publication PMC5142613 (The Biochemical journal, 2015).
# “Also recorded” adds a separate entry of the source.
# Assays:
# ATAD2A bromodomain [1] = experiment: DiscoveRx competitive displacement assay; format: binding; settings: orthogonal assay; as previously described [22]
# ATAD2A bromodomain [2] = target: T1, ATAD2A bromodomain (Homo sapiens, UniProt Q6PL18); experiment: ATAD2A AlphaScreen assay; format: binding; settings: for Displacement of histone peptide by small molecule: titration upon H4K5Ac peptide competition, Supplementary Fig. 3b
# T1 sequence (Q6PL18 980-1092 limits assumed): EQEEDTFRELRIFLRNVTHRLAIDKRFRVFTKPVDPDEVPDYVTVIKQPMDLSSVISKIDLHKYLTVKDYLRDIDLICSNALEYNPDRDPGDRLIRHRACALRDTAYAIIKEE
# ATAD2A bromodomain [3] = target: T1, ATAD2A bromodomain; experiment: X-ray co-crystallography of ATAD2A complexes; format: binding; settings: for Binding site / binding mode in crystal structure: co-crystal structure with ATAD2A bromodomain; for Conformational form of ATAD2A in the complex: co-crystal structure, ZA loop position relative to PDB 3DAI
# ATAD2A bromodomain [4] = settings: human cells (H3K14ac listed second, "respectively"); ref [7], [30]; cited from earlier work
# ATAD2A bromodomain [5] = settings: ref [24]; cited from earlier work
Affinity in DiscoveRx competitive displacement assay (ATAD2A bromodomain [1]),Displacement of histone peptide by small molecule (ATAD2A bromodomain [2]),Binding site / binding mode in crystal structure (ATAD2A bromodomain [3]),Conformational form of ATAD2A in the complex (ATAD2A bromodomain [3]),"Binding measured in vitro, compound 2 versus compound 1 (ATAD2A bromodomain [2]; Fig. 5a, IC50 and Kd (AlphaScreen and DiscoveRx), comparison with compound 1)","Response of acetylated histone peptide in AlphaScreen panel (ATAD2A bromodomain [2]; direct binding of biotinylated peptide to His-ATAD2A, chemiluminescent readout)",Compound,"Histone interaction by co-immunoprecipitation, human cells (ATAD2A bromodomain [4])",Interaction in panning of histone peptide panels by peptide array (ATAD2A bromodomain [5])
high μM,displaced,,,,,"CCOC(=O)Nc1cc(-c2ccc(C)c(NS(C)(=O)=O)c2)nn2c(C)nnc12 [Bromosporine, reference compound]",,
high μM,displaced,acetyllysine mimetic binding mode,open form,,,"COC(=O)c1cc(NS(=O)(=O)c2ccccc2)cc(-c2c(C)noc2C)c1 [compound 1, Methyl 3-(3,5-dimethylisoxazol-4-yl)-5-(phenylsulfonamido)benzoate]",,
high μM,displaced,acetyllysine mimetic binding mode,open form,weaker binding,,"Cc1noc(C)c1-c1cc(NS(=O)(=O)c2ccccc2)cc(C(=O)O)c1 [compound 2, 3-(3,5-Dimethylisoxazol-4-yl)-5-(phenylsulfonamido)benzoic acid]",,

Compound,Affinity in DiscoveRx competitive displacement assay (ATAD2A bromodomain [1]),Displacement of histone peptide by small molecule (ATAD2A bromodomain [2]),Binding site / binding mode in crystal structure (ATAD2A bromodomain [3]),Conformational form of ATAD2A in the complex (ATAD2A bromodomain [3]),"Binding measured in vitro, compound 2 versus compound 1 (ATAD2A bromodomain [2]; Fig. 5a, IC50 and Kd (AlphaScreen and DiscoveRx), comparison with compound 1)","Response of acetylated histone peptide in AlphaScreen panel (ATAD2A bromodomain [2]; direct binding of biotinylated peptide to His-ATAD2A, chemiluminescent readout)","Histone interaction by co-immunoprecipitation, human cells (ATAD2A bromodomain [4])",Interaction in panning of histone peptide panels by peptide array (ATAD2A bromodomain [5])
"ARTKQTARKSTGGK(Ac)APRKQLAGGK [H3K14ac, reference compound]",,,"interacts along the end of αC helix, far from the acetyllysine binding site; also recorded: binds non-specifically",,,did not respond,histone interactions have been reported,have not been confirmed
